Measurements from patent publication US12077503B2, “Substituted cyclic amides and their use as herbicides” (FMC CORPORATION, priority 2015, dated 2024).

Assays:
Format in all cases: in vivo
[1] = system: barnyardgrass (Echinochloa crus-galli); experiment: Test G Post-Emergence Protocol; settings: Echinochloa crus-galli, post-emergence, 312 h, read-out: Barnyardgrass damage rating; for pest or weed control at 15.625 g/ha: 15.625 g ai/ha, evaluated after 13 days (100=total damage to plant; 0=no damage to plant); for pest or weed control at 62.5 g/ha: 62.5 g ai/ha; for pest or weed control at 62.5 g/ha / pest or weed control at 250 g/ha: evaluated after 13 days, 100=total damage to plant, 0=no damage to plant; for pest or weed control at 250 g/ha: 250 g ai/ha
Outline: (§1)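 Pot-grown seedlings, 8 days old, raised in a glasshouse at 24/16 °C day/night with 14 h light and 65% humidity, were sprayed post-emergence with test compound in acetone/water (50:50) plus 0.5% Tween 20 at 15.625, 62.5 or 250 g/ha. Damage was scored visually 13 days later on a 0–100 scale (100 = total damage).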

[2] = system: giant foxtail (Setaria faberi); experiment: Test G Post-Emergence Protocol; settings: Setaria faberi, post-emergence, 312 h, read-out: Foxtail, Giant damage rating; for pest or weed control at 15.625 g/ha: 15.625 g ai/ha, evaluated after 13 days (100=total damage to plant; 0=no damage to plant); for pest or weed control at 62.5 g/ha: 62.5 g ai/ha; for pest or weed control at 62.5 g/ha / pest or weed control at 250 g/ha: evaluated after 13 days, 100=total damage to plant, 0=no damage to plant; for pest or weed control at 250 g/ha: 250 g ai/ha
Outline: as §1

[3] = system: velvetleaf (Abutilon theophrasti); experiment: Test G Post-Emergence Protocol; settings: Abutilon theophrasti, post-emergence, 312 h, read-out: Velvetleaf damage rating; for pest or weed control at 15.625 g/ha: 15.625 g ai/ha, evaluated after 13 days (100=total damage to plant; 0=no damage to plant); for pest or weed control at 62.5 g/ha: 62.5 g ai/ha; for pest or weed control at 62.5 g/ha / pest or weed control at 250 g/ha: evaluated after 13 days, 100=total damage to plant, 0=no damage to plant; for pest or weed control at 250 g/ha: 250 g ai/ha
Outline: as §1

corn (Zea mays) [4] = experiment: Test G Post-Emergence Protocol; settings: Zea mays, post-emergence, 312 h, read-out: Corn damage rating; for plant injury at 15.625 g/ha: 15.625 g ai/ha, evaluated after 13 days (100=total damage to plant; 0=no damage to plant); for plant injury at 62.5 g/ha: 62.5 g ai/ha; for plant injury at 62.5 g/ha / plant injury at 250 g/ha: evaluated after 13 days, 100=total damage to plant, 0=no damage to plant; for plant injury at 250 g/ha: 250 g ai/ha
Outline: as §1

[5] = system: ivy-leaved morning glory (Ipomoea hederacea); experiment: Test G Post-Emergence Protocol; settings: Ipomoea, post-emergence, 312 h, read-out: Morningglory, Ivy-leaved damage rating; for pest or weed control at 15.625 g/ha: 15.625 g ai/ha, evaluated after 13 days (100=total damage to plant; 0=no damage to plant); for pest or weed control at 62.5 g/ha: 62.5 g ai/ha; for pest or weed control at 62.5 g/ha / pest or weed control at 250 g/ha: evaluated after 13 days, 100=total damage to plant, 0=no damage to plant; for pest or weed control at 250 g/ha: 250 g ai/ha
Outline: as §1

[6] = system: redroot pigweed (Amaranthus retroflexus); experiment: Test G Post-Emergence Protocol; settings: Amaranthus retroflexus, post-emergence, 312 h, read-out: Pigweed, Redroot damage rating; for pest or weed control at 15.625 g/ha: 15.625 g ai/ha, evaluated after 13 days (100=total damage to plant; 0=no damage to plant); for pest or weed control at 62.5 g/ha: 62.5 g ai/ha; for pest or weed control at 62.5 g/ha / pest or weed control at 250 g/ha: evaluated after 13 days, 100=total damage to plant, 0=no damage to plant; for pest or weed control at 250 g/ha: 250 g ai/ha
Outline: as §1

[7] = system: barnyardgrass (Echinochloa crus-galli); experiment: Test G Pre-Emergence Protocol; settings: Echinochloa crus-galli, pre-emergence, 312 h, evaluated after 13 days; for pest or weed control at 15.625 g/ha: 15.625 g ai/ha; for pest or weed control at 15.625 g/ha / pest or weed control at 250 g/ha: read-out: Barnyardgrass damage rating (100=total damage to plant; 0=no damage to plant); for pest or weed control at 62.5 g/ha: 62.5 g ai/ha, 100=total damage to plant, 0=no damage to plant, read-out: Barnyardgrass damage rating; for pest or weed control at 250 g/ha: 250 g ai/ha
Outline: (§2)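 Pre-emergence spray, 15.625/62.5/250 g/ha, vehicle acetone:water 50:50 + 0.5% Tween 20, applied 1 d after sowing. Glasshouse 24/16° C, 14 h light, 65% RH, watered twice daily. Visual damage rating at 13 d, 0–100 scale.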

[8] = system: giant foxtail (Setaria faberi); experiment: Test G Pre-Emergence Protocol; settings: Setaria faberi, pre-emergence, 312 h, evaluated after 13 days; for pest or weed control at 15.625 g/ha: 15.625 g ai/ha; for pest or weed control at 15.625 g/ha / pest or weed control at 250 g/ha: read-out: Foxtail, Giant damage rating (100=total damage to plant; 0=no damage to plant); for pest or weed control at 62.5 g/ha: 62.5 g ai/ha, 100=total damage to plant, 0=no damage to plant, read-out: Foxtail, Giant damage rating; for pest or weed control at 250 g/ha: 250 g ai/ha
Outline: as §2

[9] = system: velvetleaf (Abutilon theophrasti); experiment: Test G Pre-Emergence Protocol; settings: Abutilon theophrasti, pre-emergence, 312 h, evaluated after 13 days; for pest or weed control at 15.625 g/ha: 15.625 g ai/ha; for pest or weed control at 15.625 g/ha / pest or weed control at 250 g/ha: read-out: Velvetleaf damage rating (100=total damage to plant; 0=no damage to plant); for pest or weed control at 62.5 g/ha: 62.5 g ai/ha, 100=total damage to plant, 0=no damage to plant, read-out: Velvetleaf damage rating; for pest or weed control at 250 g/ha: 250 g ai/ha
Outline: as §2

corn (Zea mays) [10] = experiment: Test G Pre-Emergence Protocol; settings: Zea mays, pre-emergence, 312 h, evaluated after 13 days; for plant injury at 15.625 g/ha: 15.625 g ai/ha; for plant injury at 15.625 g/ha / plant injury at 250 g/ha: read-out: Corn damage rating (100=total damage to plant; 0=no damage to plant); for plant injury at 62.5 g/ha: 62.5 g ai/ha, 100=total damage to plant, 0=no damage to plant, read-out: Corn damage rating; for plant injury at 250 g/ha: 250 g ai/ha
Outline: as §2

[11] = system: ivy-leaved morning glory (Ipomoea hederacea); experiment: Test G Pre-Emergence Protocol; settings: Ipomoea, pre-emergence, 312 h, evaluated after 13 days; for pest or weed control at 15.625 g/ha: 15.625 g ai/ha; for pest or weed control at 15.625 g/ha / pest or weed control at 250 g/ha: read-out: Morningglory, Ivy-leaved damage rating (100=total damage to plant; 0=no damage to plant); for pest or weed control at 62.5 g/ha: 62.5 g ai/ha, 100=total damage to plant, 0=no damage to plant, read-out: Morningglory, Ivy-leaved damage rating; for pest or weed control at 250 g/ha: 250 g ai/ha
Outline: as §2

[12] = system: redroot pigweed (Amaranthus retroflexus); experiment: Test G Pre-Emergence Protocol; settings: Amaranthus retroflexus, pre-emergence, 312 h, evaluated after 13 days; for pest or weed control at 15.625 g/ha: 15.625 g ai/ha; for pest or weed control at 15.625 g/ha / pest or weed control at 250 g/ha: read-out: Pigweed, Redroot damage rating (100=total damage to plant; 0=no damage to plant); for pest or weed control at 62.5 g/ha: 62.5 g ai/ha, 100=total damage to plant, 0=no damage to plant, read-out: Pigweed, Redroot damage rating; for pest or weed control at 250 g/ha: 250 g ai/ha
Outline: as §2

| Compound | pest or weed control at 15.625 g/ha [1] [%] | pest or weed control at 62.5 g/ha [1] [%] | pest or weed control at 250 g/ha [1] [%] | pest or weed control at 15.625 g/ha [2] [%] | pest or weed control at 62.5 g/ha [2] [%] | pest or weed control at 250 g/ha [2] [%] | pest or weed control at 15.625 g/ha [3] [%] | pest or weed control at 62.5 g/ha [3] [%] | pest or weed control at 250 g/ha [3] [%] | plant injury at 15.625 g/ha (corn (Zea mays) [4]) [%] | plant injury at 62.5 g/ha (corn (Zea mays) [4]) [%] | plant injury at 250 g/ha (corn (Zea mays) [4]) [%] | pest or weed control at 15.625 g/ha [5] [%] | pest or weed control at 62.5 g/ha [5] [%] | pest or weed control at 250 g/ha [5] [%] | pest or weed control at 15.625 g/ha [6] [%] | pest or weed control at 62.5 g/ha [6] [%] | pest or weed control at 250 g/ha [6] [%] | pest or weed control at 15.625 g/ha [7] [%] | pest or weed control at 62.5 g/ha [7] [%] | other results |
| --- | --- | --- | --- | --- | --- | --- | --- | --- | --- | --- | --- | --- | --- | --- | --- | --- | --- | --- | --- | --- | --- |
| Cc1cc([C@H]2CN(C)C(=O)[C@@H]2C(=O)Nc2cccc(F)c2F)cnn1 (racemic) [Compound 1662] | 0 | 0 | 0 | 0 | 0 | 0 | 0 | 0 | 0 | 0 | 0 | 0 | 0 | 0 | 0 | 0 | 0 | 0 | 0 | 0 | pest or weed control at 250 g/ha [7]: 0%; pest or weed control at 15.625 g/ha [8]: 0%; pest or weed control at 62.5 g/ha [8]: 0%; pest or weed control at 250 g/ha [8]: 0%; pest or weed control at 15.625 g/ha [9]: 0%; pest or weed control at 62.5 g/ha [9]: 0%; pest or weed control at 250 g/ha [9]: 0%; plant injury at 15.625 g/ha (corn (Zea mays) [10]): 0%; plant injury at 62.5 g/ha (corn (Zea mays) [10]): 0%; plant injury at 250 g/ha (corn (Zea mays) [10]): 0%; pest or weed control at 15.625 g/ha [11]: 0%; pest or weed control at 62.5 g/ha [11]: 0%; pest or weed control at 250 g/ha [11]: 0%; pest or weed control at 15.625 g/ha [12]: 0%; pest or weed control at 62.5 g/ha [12]: 0%; pest or weed control at 250 g/ha [12]: 0% |
| CN1C[C@H](c2ccc(C(F)(F)F)cc2)[C@@H](C(=O)Nc2cccnc2[S+](C)[O-])C1=O (mixture of isomers) [Compound 1788] | 0 | 0 | 0 | 0 | 0 | 0 | 0 | 10 | 20 | 0 | 10 | 10 | 0 | 0 | 40 | 0 | 10 | 20 | 0 | 0 | pest or weed control at 250 g/ha [7]: 20%; pest or weed control at 15.625 g/ha [8]: 0%; pest or weed control at 62.5 g/ha [8]: 0%; pest or weed control at 250 g/ha [8]: 0%; pest or weed control at 15.625 g/ha [9]: 0%; pest or weed control at 62.5 g/ha [9]: 0%; pest or weed control at 250 g/ha [9]: 0%; plant injury at 15.625 g/ha (corn (Zea mays) [10]): 0%; plant injury at 62.5 g/ha (corn (Zea mays) [10]): 0%; plant injury at 250 g/ha (corn (Zea mays) [10]): 0%; pest or weed control at 15.625 g/ha [11]: 0%; pest or weed control at 62.5 g/ha [11]: 0%; pest or weed control at 250 g/ha [11]: 0%; pest or weed control at 15.625 g/ha [12]: 0%; pest or weed control at 62.5 g/ha [12]: 0%; pest or weed control at 250 g/ha [12]: 0% |
